Results: PubChem BioAssay AID1963826 (Molecular Pharmacology Branch, DTP, NCI, 2024)

Tested on: 926638-142-R-J1-PDC complex spheroid viability
Test: Anticancer human tumor 926638-142-R-J1-PDC patient-derived endometrial carcinoma cell line growth inhibition [POLQ]
Settings: for IC50: curve of first compound; for viability, T/C: stronger effect = lower value
Procedure: Multicellular complex tumor spheroid response to Polymerase (POL) inhibitors (novobiocin, ART-558, RP6685) in combination with a variety of drugs and investigational agents in selected tumor cell lines
The POL inhibitors (novobiocin, ART-558, and RP6685) were evaluated both individually and in combination with standard of care and investigational anticancer small molecules within a complex spheroid model of solid tumors. . Complex spheroids include a stromal component modeled by human endothelial cells (HUVEC) and fibroblasts modeled by human mesenchymal stem cells (MSCs). The concentration ranges selected for each drug and investigational agent were based upon clinically achievable concentrations if the clinical Cmax of the agent was known.
Compounds. The drugs and investigational agents: novobiocin (NSC847541), ART-558 (NSC835418), RP-6685 (NSC848927), peposertib (NSC802822), ceralasertib (NSC780249), elimusertib (NSC800525), camonsertib (NSC841442), AZD-1390 (NSC803789), olaparib (NSC753686), talazoparib (NSC767125), rucaparib (NSC756644), sotorasib (NSC818433), MRTX-1133 (NSC836407), SN-38 (NSC673596), topotecan (NSC609699), epotoside (NSC141540), doxorubicin (NSC123127), gemcitabine (NSC613327), 5-fluorouracil (NSC19893), paclitaxel (NSC125973), vemurafenib (NSC761431), MSA-2 (NSC828583), SN-011 (NSC837082), adavosertib (NSC754352), prexasertib (NSC758257), carboplatin (NSC241240) and oxaliplatin (NSC266046), were obtained from the National Cancer Institute (NCI) Developmental Therapeutics Program Chemical Repository (21). The FDA-approved anticancer drug set is available from the Developmental Therapeutics Program at https://dtp.cancer.gov/organization/dscb/obtaining/. […] The stock solutions were prepared in dimethyl sulfoxide (DMSO, Sigma-Aldrich, St. Louis, MO, cat. D2650), except for the platinum compounds which were prepared in saline (Quality Biological, Gaithersburg, MD, cat. 114-055-101), at 800-fold the tested concentration and stored at -70 degrees C prior to their use. All drugs and investigational agents were tested over a range starting from a high concentration at or near the clinical Cmax and decreasing in half-log increments. If the clinical Cmax for an agent had not been determined, the highest concentration tested was 10 microM, except for SN-38, which was tested at a high concentration of 1 microM.
Cell Culture. All cells were maintained in an incubator at 37 degrees C and 5% CO2 with 95% humidity. The PDC lines were cultured according to standard operating procedures established by the NCI PDMR (https://pdmr.cancer.gov). Table 3 of the manuscript, lists the cell lines along with the number of the three cell types plated to form the mct-spheroids and media for tumor cell growth. After thawing, all PDC lines, except 997537-175-T-J1-PDC and 415267-285-R-J2-PDC, were cultured in Matrigel-coated flasks prepared with a working solution of 1X Ham's F-12 nutrient mix, without supplementation (Thermo Fisher Scientific, cat. 11765054), 100 U/mL penicillin-streptomycin (Thermo Fisher Scientific, cat. 15140122), and 2.5% Matrigel (Corning Inc., Corning, NY, cat. 354248) for the first three passages. The two PDC lines 997537-175-T-J1-PDC and 415267-285-R-J2-PDC were cultured on uncoated flasks. The 857933-349-R-J2-PDC line was cultured in 6C/Colon 1B media containing advanced DMEM/F-12 (Thermo Fisher Scientific, cat. 12634028), 10 mM HEPES (Thermo Fisher Scientific, cat. 15630080), 1X GlutaMAX supplement (Thermo Fisher Scientific, cat. 35050061), 0.1 mg/mL primocin (InvivoGen, San Diego, CA, cat. ant-pm-2), 10% defined fetal bovine serum, heat inactivated (HyClone Laboratories Inc., Logan, UT, cat. SH30070.03HI), 50% L-WRN conditioned media (ATCC, cat. CRL-3276), 1.25 mM N-Acetyl-L-cysteine (Sigma-Aldrich, cat. A9165), 10 mM nicotinamide (Sigma-Aldrich, cat. N0636), 1X B-27 supplement (Thermo Fisher Scientific, cat. 17504044), 1X N-2 supplement (Thermo Fisher Scientific, cat. […]

[1] = second compound 0.0316 µM, first compound 0.0316 µM
[2] = second compound 0.0316 µM, first compound 0.1 µM
[3] = second compound 0.0316 µM, first compound 0.316 µM
[4] = second compound 0.0316 µM, first compound 1 µM
[5] = second compound 0.1 µM, first compound 0.0316 µM
[6] = second compound 0.1 µM, first compound 0.1 µM
[7] = second compound 0.1 µM, first compound 0.316 µM
[8] = second compound 0.1 µM, first compound 1 µM
[9] = second compound 0.316 µM, first compound 0.0316 µM
[10] = second compound 0.316 µM, first compound 0.1 µM
[11] = second compound 0.316 µM, first compound 0.316 µM
[12] = second compound 0.316 µM, first compound 1 µM
[13] = second compound 1 µM, first compound 0.0316 µM
[14] = second compound 1 µM, first compound 0.1 µM
[15] = second compound 1 µM, first compound 0.316 µM
[16] = second compound 1 µM, first compound 1 µM
[17] = second compound 3.16 µM, first compound 0.0316 µM
[18] = second compound 3.16 µM, first compound 0.1 µM
[19] = second compound 3.16 µM, first compound 0.316 µM
[20] = second compound 3.16 µM, first compound 1 µM
[21] = second compound 10 µM, first compound 0.0316 µM
[22] = second compound 10 µM, first compound 0.1 µM
[23] = second compound 10 µM, first compound 0.316 µM
[24] = second compound 10 µM, first compound 1 µM
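Note: spheroids exposed to drugs for one week before readout.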
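Throughout, for viability, T/C: percent viability relative to DMSO vehicle control wells set as 100%.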

`CCc1c2c(nc3ccc(O)cc13)-c1cc3c(c(=O)n1C2)COC(=O)[C@]3(O)CC` + COC1C(OC(N)=O)C(O)C(Oc2ccc3c(O)c(NC(=O)c4ccc(O)c(CC=C(C)C)c4)c(=O)oc3c2C)OC1(C)C showed an IC50 (second compound 0.0316 µM) of 8.81 nM, an IC50 (second compound 0.1 µM) of 12.6 nM and an IC50 (second compound 0.316 µM) of 11.9 nM. For the same molecule, the IC50 (second compound 1 µM) was 10.7 nM, the IC50 (second compound 3.16 µM) was 12.1 nM and the IC50 (second compound 10 µM) was 13.6 nM. For the same molecule, the viability, T/C (second compound 0.0316 µM, first compound 0.00316 µM) was 79.4%, the viability, T/C (second compound 0.0316 µM, first compound 0.01 µM) was 42% and the viability, T/C [1] was 30.3%. It also gave a viability, T/C [2] of 19.2%, a viability, T/C [3] of 7.89% and a viability, T/C [4] of 4.74%. The viability, T/C (second compound 0.1 µM, first compound 0.00316 µM) was 65.7%, the viability, T/C (second compound 0.1 µM, first compound 0.01 µM) was 54.1% and the viability, T/C [5] was 35.9%. The viability, T/C [6] was 17.1%, the viability, T/C [7] was 14.9% and the viability, T/C [8] was 4.58%. It also gave a viability, T/C (second compound 0.316 µM, first compound 0.00316 µM) of 68.6%, a viability, T/C (second compound 0.316 µM, first compound 0.01 µM) of 54% and a viability, T/C [9] of 32%. It also gave a viability, T/C [10] of 19.1%, a viability, T/C [11] of 9.36% and a viability, T/C [12] of 4.49%. It also gave a viability, T/C (second compound 1 µM, first compound 0.00316 µM) of 61.8%, a viability, T/C (second compound 1 µM, first compound 0.01 µM) of 53.5% and a viability, T/C [13] of 30.4%. It also gave a viability, T/C [14] of 20.2%, a viability, T/C [15] of 8.68% and a viability, T/C [16] of 5.03%. The viability, T/C (second compound 3.16 µM, first compound 0.00316 µM) was 57.8%, the viability, T/C (second compound 3.16 µM, first compound 0.01 µM) was 49.7% and the viability, T/C [17] was 40.5%. For the same molecule, the viability, T/C [18] was 17.7%, the viability, T/C [19] was 8.91% and the viability, T/C [20] was 5.57%. For the same molecule, the viability, T/C (second compound 10 µM, first compound 0.00316 µM) was 59.1%, the viability, T/C (second compound 10 µM, first compound 0.01 µM) was 57.4% and the viability, T/C [21] was 35.7%. The viability, T/C [22] was 21.5%, the viability, T/C [23] was 9.84% and the viability, T/C [24] was 6.1%.
Molecule `COc1cc2cc(C(=O)CCC(=O)O)sc2cc1OC` + COC1C(OC(N)=O)C(O)C(Oc2ccc3c(O)c(NC(=O)c4ccc(O)c(CC=C(C)C)c4)c(=O)oc3c2C)OC1(C)C has an IC50 (second compound 0.0316 µM) greater than 10000 nM, an IC50 (second compound 0.1 µM) greater than 10000 nM and an IC50 (second compound 0.316 µM) greater than 10000 nM. It also gave an IC50 (second compound 1 µM) greater than 10000 nM, an IC50 (second compound 3.16 µM) greater than 10000 nM and an IC50 (second compound 10 µM) greater than 10000 nM. The viability, T/C [1] was 93.6%, the viability, T/C [2] was 98.3% and the viability, T/C [3] was 87.9%. It also gave a viability, T/C [4] of 106%, a viability, T/C (second compound 0.0316 µM, first compound 3.16 µM) of 99.6% and a viability, T/C (second compound 0.0316 µM, first compound 10 µM) of 104%. For the same molecule, the viability, T/C [5] was 85.9%, the viability, T/C [6] was 97.5% and the viability, T/C [7] was 98.2%. It also gave a viability, T/C [8] of 86.4%, a viability, T/C (second compound 0.1 µM, first compound 3.16 µM) of 94.3% and a viability, T/C (second compound 0.1 µM, first compound 10 µM) of 101%. For the same molecule, the viability, T/C [9] was 105%, the viability, T/C [10] was 113% and the viability, T/C [11] was 88.1%. For the same molecule, the viability, T/C [12] was 110%, the viability, T/C (second compound 0.316 µM, first compound 3.16 µM) was 91.6% and the viability, T/C (second compound 0.316 µM, first compound 10 µM) was 110%. The viability, T/C [13] was 86.7%, the viability, T/C [14] was 93% and the viability, T/C [15] was 94.5%. For the same molecule, the viability, T/C [16] was 97.9%, the viability, T/C (second compound 1 µM, first compound 3.16 µM) was 97.7% and the viability, T/C (second compound 1 µM, first compound 10 µM) was 111%. It also gave a viability, T/C [17] of 99.2%, a viability, T/C [18] of 101% and a viability, T/C [19] of 103%. The viability, T/C [20] was 89.3%, the viability, T/C (second compound 3.16 µM, first compound 3.16 µM) was 81.1% and the viability, T/C (second compound 3.16 µM, first compound 10 µM) was 75.1%. For the same molecule, the viability, T/C [21] was 98.4%, the viability, T/C [22] was 109% and the viability, T/C [23] was 102%. The viability, T/C [24] was 106%, the viability, T/C (second compound 10 µM, first compound 3.16 µM) was 81.1% and the viability, T/C (second compound 10 µM, first compound 10 µM) was 99.7%.
